By IC50 is commonly meant the concentration at which inhibition is half-maximal. Higher therefore signals a need for much substance.

SMILES strings stand for the structures.

The nature of this assay: Inhibition of the release of Alpha-amylase from rat pancreatic acinar cells.

In turn, `CCN(CC)CCCCCOC(=O)C(C)(c1ccccc1)C1CCCCC1` (centres undefined) gave an IC50 of 2.7 µM. In other words, the single-digit micromolar range.

`CN(C)CCCOC(=O)C(C)(c1ccccc1)C1CCCCC1` (centres undefined) gave an IC50 of 0.01 µM.

`CCN(CC)CCCOC(=O)C(C)(c1ccccc1)C1CCCCC1` (centres undefined): the midpoint of inhibition, the IC50, lay at 0.021 µM.

Take `CCN(CC)CCOC(=O)C(C)(c1ccccc1)C1CCCCC1` (centres undefined): it took 0.052 µM to reach half-maximal inhibition (IC50).

These data come from BindingDB's records for doi:10.1021/jm00085a017 (Institute of Research, 1992).
